Assay results reported in patent US10285405B2, “Oil carrying particulate matter and uses thereof” (Nobactra Israel Ltd., priority 2013, dated 2019).

Key:
pepper plants = assay: Spraying the emulsions on pepper plants for phytotoxicity symptoms; assay type: in vivo
The tested bacteria = assay: Disc diffusion method, positive control (bacterium not specified); assay type: cell-based; conditions: positive control 3% H2O2 solution, 27° C., 48 hours
Experimental: Bacteria were grown in nutrient broth test tubes at 27° C. for 24 hrs. The paper discs were sterilized by autoclave in preparation for the disc diffusion method. Each bacteria ([…]), was placed on Nutrient agar (NA) plates and allowed to dry for 3-5 minutes. The paper discs were saturated in 100% concentration of the oregano essential oil (20 ul), and then placed onto each NA plate freshly coated with bacteria. The positive control used was 3% H2O2 solution and the negative control was DI water. The plates were incubated at 27° C. for 48 hours. The zone of inhibition was measured by standard ruler.

[1] = plants sprayed with emulsion of 25% oregano oil with 5% sesame oil made with the emulsifier, data not shown

Compound | Phytotoxicity on pepper plants (pepper plants; [1]) | further results
CCCCCCCC/C=C\CCCCCCCC(=O)OCCOCC(OCCO)C1OCC(OCCO)C1OCCO (centres unmarked) [Tween 80] | phytotoxicity | –
Triton X100 | phytotoxicity | –
CCCCCCCCCCCCCCCCCC(=O)[O-].[Na+] [sodium stearate, Sodium Stearate] | very vital | –
CCCCCCCCCCCCOS(=O)(=O)[O-].[Na+] [SDS] | – | Phytotoxicity on pepper plants (pepper plants; in vivo): phytotoxicity
OO [P. control, H2O2] | – | Inhibition zone (mm) (The tested bacteria): 8 mm
